According to publication PMC12118597 (Science Advances, 2025):
Where “and” joins values, the source holds several entries; their conditions need not be identical. Identical values can stand only once. Like-named read-outs stand apart in the source and are kept apart here.

Experiments:
human macrodomain Targ1 = target: T1, human macrodomain Targ1 (Homo sapiens, UniProt Q9Y530); test: HTRF peptide displacement assay, human Targ1; format: binding
T1 construct: Targ1_HTRF; HTRF assay; pET22b(+); His6, TEV; 1-153; made in house
T1 sequence (Q9Y530 with tags, fused parts or gaps): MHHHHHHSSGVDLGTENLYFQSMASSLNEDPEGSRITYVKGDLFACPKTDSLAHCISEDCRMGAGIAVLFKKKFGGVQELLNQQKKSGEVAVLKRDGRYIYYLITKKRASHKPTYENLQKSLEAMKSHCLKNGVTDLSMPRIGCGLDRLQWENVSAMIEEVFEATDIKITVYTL

Microsomal stability = format: in vitro ADME, mouse; details: for Mouse microsome T1/2: 1 μM compound, 0.5 mg/ml microsome protein; for CLint (mouse): intrinsic clearance from t1/2
Description: The assay was carried out in 96-well plates at 37°C. Reaction mixtures (25 μl) contained a final concentration of 1 μM compound, liver microsome protein (0.5 mg/ml), and 1 mM NADPH (reduced form of nicotinamide adenine dinucleotide phosphate) and/or 1 mM uridine diphosphate glucuronic acid (with alamethicin) in 100 mM potassium phosphate (pH 7.4) with 3 mM MgCl2. After 0, 15, 30, and 60 min, 150 μl of quench solution (100% acetonitrile with 0.1% formic acid) with an internal standard was transferred to each well. Reactions containing the same components, except NADPH, were prepared as the negative control.
The extent of metabolism was calculated as the disappearance of compounds compared to the 0-min time incubation.

Caco-2 cells = system: Caco-2 cells
Description: Caco-2 cell plates were obtained commercially and were maintained for 21 days at 37°C with 5% CO2. Cells were washed with Hank’s balanced salt solution with 5 mM Hepes for 30 min before starting the experiment. Test compound solutions are prepared by diluting DMSO stock into Hank’s balanced salt solution buffer, resulting in a final DMSO concentration of 0.1%. Before the assay, cell monolayer integrity was verified by […] electrical resistance to ensure that wells have resistance above the acceptance cutoff (1 kilohm). Transport experiments were initiated by adding test compounds to the apical (75 μl) or basal (250 μl) side. Transport plates were incubated at 37°C in a humidified incubator with 5% CO2. Samples were taken from the donor and acceptor compartments after 1 hour and analyzed by liquid chromatography–tandem mass spectrometry (LC-MS/MS) using an AB Sciex API 4000 instrument coupled to a Shimadzu LC-20 AD LC Pump system. Samples were separated using a Waters Atlantis T3 dC18 reverse phase HPLC column (20 mm by 2.1 mm) at a flow rate of 0.5 ml/min. The mobile phase consisted of 0.1% formic acid in acetonitrile (solvent A) and 0.1% formic acid in water (solvent B).
Apparent permeability (Papp) values were calculated using the following equation Papp=(dQ/dt)/A/C0 where dQ/dt is the initial rate of compound transport across the cell monolayer, A is the surface area of the filter membrane, and C0 is the initial concentration of the test compound, calculated for each direction using a four-point calibration curve by LC-MS/MS.
The net flux ratio between the two directional transports was calculated by the following equation Ratio=PappB−A/PappA−B where PappB-A and PappA-B represent the apparent permeability of compounds from the basal-to-apical and apical-to-basal sides of the cellular monolayer, respectively. Recovery was calculated on the basis of the compound concentration at the end of the experiment compared to that at the beginning of the experiment, adjusted for volumes.

Kinetic solubility = details: for Kinetic solubility (uM), mean: DMSO concentration 5%; for Mean solubility: phosphate-buffered saline pH 7.4, triplicate
[1] = target: T2, SARS-CoV-2 NSP3 macrodomain (Mac1) (Severe acute respiratory syndrome coronavirus 2, UniProt P0DTD1); test: biochemical; format: binding
[2] = target: T3, human macrodomain MacroD2 (Homo sapiens, UniProt A1Z1Q3); test: HTRF peptide displacement assay, human MacroD2; format: binding
T3 construct: MacroD2_HTRF; HTRF assay; pET22b(+); His6, TEV, Avi; 2-425; made in house
T3 sequence (A1Z1Q3 with tags, fused parts or gaps): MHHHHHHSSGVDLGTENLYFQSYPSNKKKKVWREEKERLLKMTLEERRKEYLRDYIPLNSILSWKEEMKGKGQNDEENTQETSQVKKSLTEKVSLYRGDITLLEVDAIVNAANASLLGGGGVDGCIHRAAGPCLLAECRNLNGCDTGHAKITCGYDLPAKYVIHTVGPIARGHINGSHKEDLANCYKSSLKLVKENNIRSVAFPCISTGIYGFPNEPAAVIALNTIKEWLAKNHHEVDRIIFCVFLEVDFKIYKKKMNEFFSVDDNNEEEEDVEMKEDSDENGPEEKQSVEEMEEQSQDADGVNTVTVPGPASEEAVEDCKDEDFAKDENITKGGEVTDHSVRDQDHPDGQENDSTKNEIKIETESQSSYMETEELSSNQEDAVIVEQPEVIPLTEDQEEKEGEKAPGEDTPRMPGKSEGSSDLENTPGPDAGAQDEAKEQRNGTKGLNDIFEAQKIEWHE

[3] = target: T2, SARS-CoV-2 NSP3 macrodomain (Mac1); format: binding; details: for 2*(1-BDC) (%): occupancy estimate from PanDDA; for 1-BDC (PanDDA run, DMSO background map): event 1
[4] = Mouse microsome stability assay
[5] = Caco-2 permeability assay, compound concentration 5
[6] = HTRF binding curve, SARS-CoV-2 Mac1
[7] = SARS CoV-2 macrodomain HTRF assay, dose-response
[8] = crystal soak 10 mM, P43 crystal form
[9] = crystal soak 10 mM, DMSO background map
[10] = ligand-bound crystal structure obtained (TRUE)
[11] = site occupied in X-ray crystal structure
[12] = PanDDA background density correction, 1-BDC
[13] = crystal soak concentration 10 mM, DMSO background map
[14] = crystal soak concentration 10 mM, P43 crystals

| Structure (SMILES) | CLint (mouse) (Microsomal stability) | Hill slope [1, 6] | Hill slope [1, 7] | X-ray crystal structure [3, 10] | 2*(1-BDC) (%) [3] | Binding site [3, 11] | 1-BDC [3, 12] | Refined ligand occupancy (%) ([3]; crystallographic refinement) | other results |
| --- | --- | --- | --- | --- | --- | --- | --- | --- | --- |
| Nc1ncnc2c1ncn2[C@@H]1O[C@H](COP(=O)(O)OP(=O)(O)OC[C@H]2O[C@@H](O)[C@H](O)[C@@H]2O)[C@@H](O)[C@H]1O.[Na].[Na] [ADP-ribose, reference compound] | – | – | – | – | – | – | – | – | Hill slope (human macrodomain Targ1; HTRF binding curve, Targ1): 1.5 |
| O=C(Nc1ccc(C(=O)N[C@H]2c3cccc(O)c3C[C@H]2C(=O)O)cc1)NC1CC1 [AVI-92, reference compound] | < 11.6 µl/min/mg protein | – | – | – | – | – | – | – | Mouse microsome T1/2 (Microsomal stability): > 120 min; CLint (mouse) (µl/min/mg protein), mean (Microsomal stability; [4]): <11.6 µl/min/mg protein; T1/2 (min), mean (Microsomal stability; [4]): >120 min; Papp, A-B (x10-6 cm/s), mean (Caco-2 cells; [5]): 0.04 x10-6 cm/s; Papp, B-A (x10-6 cm/s), mean (Caco-2 cells; [5]): 1.7 x10-6 cm/s; Ratio (B-A/A-B) (Caco-2 cells; [5]): 42.50; Recover Rate (%) (Caco-2 cells; [5]): 91%; Caco-2 ratio B-A/A-B (Caco-2 cells; net flux ratio): 40.7; Kinetic solubility (uM), mean (Kinetic solubility): 524 µM; Mean solubility (Kinetic solubility): 524 µM |
| O=C1CCCN1Nc1ncnc2[nH]c3cc(F)ccc3c12 [AVI-219, reference compound] | 53.1 µl/min/mg protein | – | – | – | – | – | – | – | T1/2 (min), mean (Microsomal stability; [4]): 26.1 min; Recover Rate (%) (Caco-2 cells; [5]): 98%; Kinetic solubility (uM), mean (Kinetic solubility): 127 µM; Mean solubility (Kinetic solubility): 127 µM |
| CC(C)(O)[C@H]1CCCN1c1ncnc2[nH]ccc12 [AVI-607, 2-[(2R)-1-{7H-pyrrolo[2,3-d]pyrimidin-4-yl}pyrrolidin-2-yl]propan-2-ol] | 73 µl/min/mg protein | 1.5 | 1.5 | TRUE | 88% | Adenosine | – | – | inhibition at 200 µM ([1]; SARS CoV-2 macrodomain HTRF assay, single dose concentration 200 μM, read-out: Average % competition): 100%; inhibition at 200 µM ([1]; compound at 200 μM, mean of three to four technical replicates, read-out: % competition at 200 μM (preliminary HTRF screen)): 100%; showed binding to the human macrodomain MacroD2 ([2]; result in words): none; showed binding to the human macrodomain Targ1 (human macrodomain Targ1; result in words): none; T1/2 (min), mean (Microsomal stability; [4]): 19 min; Recover Rate (%) (Caco-2 cells; [5]): 93%; Occupancy difference (refined_occupancy - 2*(1-BDC)) [3]: 5; 1-BDC ([3]; PanDDA background density correction factor): 0.44; PanDDA run, overall: Modeling comment ([3]; crystal soak 10 mM): High occupancy, use manual refinement; PanDDA run, overall: Hit [3, 8]: TRUE; PanDDA run, DMSO background map: 1-BDC [3, 9]: 0.42 and 0.44; PanDDA run, DMSO background map: Hit [3, 9]: TRUE; Total number of conformations ([3]; ligand conformations modeled in the crystal structure): 1; Refined ligand occupancy (%) ([3]; refined crystallographic occupancy): 93%; Kinetic solubility (uM), mean (Kinetic solubility): 518 µM; Mean solubility (Kinetic solubility): 518 µM |
| C[C@H]1CCCN(c2ncnc3[nH]ccc23)[C@H]1CO [AVI-3716] | 44.4 µl/min/mg protein | – | – | – | – | – | – | – | showed binding to the human macrodomain MacroD2 ([2]; result in words): none; showed binding to the human macrodomain Targ1 (human macrodomain Targ1; result in words): none; Mouse microsome T1/2 (Microsomal stability): 31.2 min; Recover Rate (%) (Caco-2 cells; [5]): 104%; Kinetic solubility (uM), mean (Kinetic solubility): 523 µM; Mean solubility (Kinetic solubility): 523 µM |
| Cc1c[nH]c2ncnc(NCC3(O)CCCCC3)c12 [AVI-3761, 1-(((5-methyl-7H-pyrrolo[2,3-d]pyrimidin-4-yl)amino)methyl)cyclohexan-1-ol] | 185 µl/min/mg protein | – | – | – | – | – | – | – | showed binding to the human macrodomain MacroD2 [2]: none; showed binding to the human macrodomain Targ1 (human macrodomain Targ1): none; T1/2 (min), mean (Microsomal stability; [4]): 7.49 min; Recover Rate (%) (Caco-2 cells; Caco-2, compound concentration 5): 86% |
| Cc1c[nH]c2ncnc(NCC3(O)CCC(C)CC3)c12 (stereo not drawn) [AVI-4331] | – | 1.2 | 1.2 | TRUE | 54% | Adenosine | 0.27 | 54% | Hit (PanDDA run, overall) [3, 8]: TRUE; Hit (PanDDA run, DMSO background map) [3, 9]: TRUE; 1-BDC (PanDDA run, DMSO background map) [3, 9]: 0.27; Hit (PanDDA run, DMSO background map) [3, 13]: TRUE; 1-BDC (PanDDA run, DMSO background map) [3, 13]: 0.23; Hit (PanDDA run, overall) [3, 14]: TRUE; Modeling comment (PanDDA run, overall) [3, 14]: Duplicate, not modeled |
| CC(C)(CO)Nc1ncnc2[nH]ccc12 [AVI-5266] | – | 1.1 | 1.1 | – | 24% | – | 0.12 | 40% | X-ray crystal structure ([3]; TRUE = crystal structure with ligand obtained): TRUE; Binding site ([3]; site of ligand in X-ray crystal structure): Adenosine |
| CC1(C)CCN(c2ncnc3[nH]ccc23)C(CO)C1 (stereo not drawn) [AVI-5994] | – | 1.2 | 1.2 | TRUE | 46% | Adenosine | 0.23 | 46% | – |
| O[C@H]1CC[C@H]2CCN(c3ncnc4[nH]ccc34)[C@H]21 [AVI-5997] | – | 1.2 | 1.2 | TRUE | 58% | Adenosine | 0.29 | 70% | – |
| OCC1C=CCCN1c1ncnc2[nH]ccc12 (stereo not drawn) [AVI-5998] | – | 1.2 | 1.2 | TRUE | 38% | Adenosine | 0.19 | 38% | – |
| OCC1CC=CCN1c1ncnc2[nH]ccc12 (stereo not drawn) [AVI-6002] | – | 1.3 | 1.3 | TRUE | 32% | Adenosine | 0.16 | 50% | – |
| OC1(CNc2ncnc3[nH]ccc23)CCCCC1 [AVI-6217] | – | 1.1 | 1.1 | TRUE | 44% | Adenosine | 0.22 | 60% | – |
| OC1CCC(O)(CNc2ncnc3[nH]ccc23)CC1 (stereo not drawn) [AVI-6220] | – | 1.3 | 1.3 | TRUE | 14% | Adenosine | 0.07 | 14% | – |
